Measured values: US6682763B2, “Skin-beautifying agent, anti-aging agent for the skin, whitening agent and external agent for the skin” (The Nisshin Oil Mills, Ltd., priority 1999, dated 2004)

Test system: B-16 melanoma cells
Conditions: mouse, 5 days
Protocol: If the culture system includes a substance capable of inhibiting the melanin-production during the proliferation, the darkening of the cells is suppressed, while the whitening thereof is promoted. Thus, the melanin-production-inhibitory function can be evaluated by comparing the degree of darkening of cells observed when any sample is not added with the degree of whitening of cells observed when the sample is added. In this connection, some of substances may be toxic to the B-16 melanoma cells. To evaluate this cytotoxicity, the cell-survival rate observed when a sample is not added is compared with that observed for the system free of any sample. The melanin-production-inhibitory function is evaluated using the cell-whitening degree and the cell-survival rate in combination.
Cytotoxicity Index=C/D <Formula 4>
In this respect, the term “cell-survival rate” herein used is defined by the following <Formula 5>:
Cell-Survival Rate(%)=(E/F)×100 <Formula 5>
E: Viable cell count observed for the system to which a sample is added.
F: Number of cells observed for the system free of any added test sample. […]
The rate of cell-survival can be calculated according to the aforementioned relation: <Formula 5>.

OC[C@H]1O[C@@H](Oc2ccc(O)cc2)[C@H](O)[C@@H](O)[C@@H]1O [arbutin]
concentration at N.D. (rate of cell survival not more than 10%): 500 ppm
